In ChEMBL document CHEMBL3507680, “University of Dundee, Gates Library screen for HepG2 cell viability”:

Test: Human HepG2 cell viability assay in 384 well format
Assay type: toxicity, cell-based
Parameters: dose 125 nL, time 70.5 hour; cytotoxicity at 70.5 h: concentration not given beside the values
Settings: HepG2 cells, read-out: Inhibition

Work on `CC(C)c1nc(CN2CCCN(Cc3nnc(C4CC4)o3)CC2)no1` yielded a cytotoxicity at 70.5 h of 1.11%.

Work on `Cc1nc(C)n(CC2CCCN2Cc2nc(N)c3ccccc3n2)n1` (centres undefined) yielded a cytotoxicity at 70.5 h of -4.33%.

Work on `CC(O)CNC(=O)NCc1cccnc1OC1CCCC1` (centres undefined) yielded a cytotoxicity at 70.5 h of -6.8%.

In the case of `Cc1cc(NC(=O)CCN(CC2CCOC2)C2CC2)no1` (centres undefined), the cytotoxicity at 70.5 h is reported as -9.35%.

`Cc1cc(CN(C)C(=O)c2ccnc(N(C)C)c2)no1` gave a cytotoxicity at 70.5 h of -7.52%.

Compound `Cc1cc(C(=O)NCc2ccc(N3CCCC(C(N)=O)C3)cc2)no1` (centres undefined) has a cytotoxicity at 70.5 h of -12.6%.

`COCC(C)NC(=O)c1cc(Br)c2c(c1)OCCO2` (centres undefined) gave a cytotoxicity at 70.5 h of -10.9%.

Compound `Cc1cnn(CC2CN(CC(=O)N3CCc4ccccc43)CCO2)c1` (centres undefined) has a cytotoxicity at 70.5 h of -10.9%.

Compound `Cc1nc(C)n(CC2CCCN2Cc2nc3ccccc3n2C)n1` (centres undefined) has a cytotoxicity at 70.5 h of -7.27%.

In the case of `Cc1nc(C)n(CC2CCCN2Cc2nc3ccccc3nc2C)n1` (centres undefined), the cytotoxicity at 70.5 h is reported as 3.65%.

With `Cc1cc(C)n(C2CCCN(C(=O)c3c(C)c(C)n[nH]c3=O)C2)n1` (centres undefined) the cytotoxicity at 70.5 h was -8.79%.

`OC(CNCCn1cccn1)c1ccc2c(c1)OCCO2` (centres undefined) gave a cytotoxicity at 70.5 h of -2.85%.

`CC(C)c1nc(C2CCCN2CC(=O)Nc2nncs2)no1` (centres undefined) gave a cytotoxicity at 70.5 h of -1.18%.

`Cn1c(CN2CCCC2c2noc(C3CC3)n2)cc(=O)n(C)c1=O` (centres undefined) showed a cytotoxicity at 70.5 h of -9.32%.

Work on `CCCc1noc(CN2CCCC2c2c(C)nn(C)c2OC)n1` (centres undefined) yielded a cytotoxicity at 70.5 h of -7.09%.

`CCn1cnnc1CNC(=O)N1CCOCC1` gave a cytotoxicity at 70.5 h of -13.2%.

For `COCCc1noc(CN2CCCC2c2c(C)nn(C)c2C)n1` (centres undefined), the cytotoxicity at 70.5 h was -8.48%.

With `COc1ccc(F)cc1CN1CCCC(c2cc(C(N)=O)[nH]n2)C1` (centres undefined) the cytotoxicity at 70.5 h was -10.6%.

Compound `Cc1cnn(CC2CN(CC(=O)NCc3ccccn3)CCO2)c1` (centres undefined) has a cytotoxicity at 70.5 h of 14.8%.

For `Cc1cccc(-c2noc(CN3CCc4nn(C)c(=O)cc4C3)n2)c1`, the cytotoxicity at 70.5 h was 8.08%.

`O=C(c1cc(Cl)c2c(c1)OCCO2)N1CCCC(n2cncn2)C1` (centres undefined) gave a cytotoxicity at 70.5 h of -10.2%.

`Cc1nc(C)n(CC2CN(CCOc3ccccc3F)CCO2)n1` (centres undefined) gave a cytotoxicity at 70.5 h of -10.8%.

`CC(C)c1nc(C2CCCN(Cc3nnc(C4CC4)o3)C2)no1` (centres undefined) gave a cytotoxicity at 70.5 h of -8.01%.

`CNc1snc(C)c1C(=O)N1CCCC(n2ccnc2C(C)C)C1` (centres undefined) showed a cytotoxicity at 70.5 h of -5.8%.

Compound `Cc1cnn(CC2CCCCN2C(=O)CN(C)C2CC2)c1` (centres undefined) has a cytotoxicity at 70.5 h of 16.1%.

For `Cc1nc(C2CCCN(C(=O)c3cccc4c3OCO4)C2)no1` (centres undefined), the cytotoxicity at 70.5 h was -4.51%.

Work on `COc1ccccc1C(=O)NC(CC(=O)O)c1cccs1` (centres undefined) yielded a cytotoxicity at 70.5 h of -3.76%.

Work on `Cc1cc(NC(=O)NCc2ccccc2OC(F)F)n(C)n1` yielded a cytotoxicity at 70.5 h of -5.54%.

Work on `CC(CCc1ccccc1)NC(=O)Nc1cnn(CC(N)=O)c1` (centres undefined) yielded a cytotoxicity at 70.5 h of -2.53%.

`COc1ccc(COCC(O)CNC(=O)c2cccnc2)cc1` (centres undefined) showed a cytotoxicity at 70.5 h of 32.7%.

Work on `CC(Cc1ccco1)NC(=O)Nc1cnn(CC(N)=O)c1` (centres undefined) yielded a cytotoxicity at 70.5 h of -1.8%.

`Cc1cnn(CC(C)NCc2ccc(S(C)(=O)=O)cc2)c1` (centres undefined) showed a cytotoxicity at 70.5 h of -1.78%.

`c1ccc(-n2nnnc2CN2CCCC(Cn3cncn3)C2)cc1` (centres undefined) gave a cytotoxicity at 70.5 h of -0.367%.

`O=C(NC1CCN(c2snc3ccccc23)CC1)C1CCC1` showed a cytotoxicity at 70.5 h of 14.4%.

`c1cnnc(N2CCCC2CNc2ncnc3ccccc23)c1` (centres undefined) showed a cytotoxicity at 70.5 h of 11.3%.

In the case of `c1cnnc(N2CCCC2CNc2nc3ccccc3o2)c1` (centres undefined), the cytotoxicity at 70.5 h is reported as -2.85%.

`CCCc1ncc(C(=O)N2CCOC(c3nc(C)n[nH]3)C2)s1` (centres undefined) showed a cytotoxicity at 70.5 h of -7.33%.

For `CCc1ncncc1C(=O)N1CCOC(c2nc(C)n[nH]2)C1` (centres undefined), the cytotoxicity at 70.5 h was -3%.

For `CCc1nnsc1C(=O)N1CCOC(c2nc(C)n[nH]2)C1` (centres undefined), the cytotoxicity at 70.5 h was 1.73%.

For `Cc1cnn(CC2CCCCN2C(=O)Cc2csc(C)n2)c1` (centres undefined), the cytotoxicity at 70.5 h was -7.78%.

With `Cc1nn(C)c(N(C)C)c1CNCc1ccccc1Cn1cncn1` the cytotoxicity at 70.5 h was -9.26%.

`Cc1nc(C(=O)N2CCCC2c2c(C)nn(C)c2C)ccc1C#N` (centres undefined) showed a cytotoxicity at 70.5 h of -7.57%.

In the case of `COc1ccc(C(=O)N2CCC(Nc3cccnn3)CC2)c(OC)c1`, the cytotoxicity at 70.5 h is reported as -6.9%.

Compound `CC(NC(N)=O)C(=O)N1CCCN(Cc2nccn2C(C)C)CC1` (centres undefined) has a cytotoxicity at 70.5 h of -11.9%.

`Cc1nnc2n1CCN(CCOc1ccccc1)C2` gave a cytotoxicity at 70.5 h of -11.4%.

Compound `Cc1ccc(NC2CCN(C(=O)c3cccc(F)c3F)CC2)nn1` has a cytotoxicity at 70.5 h of -13.7%.

`Cc1ccc(-c2nc(CN3CCC(C(=O)N(C)C)CC3)cs2)o1` showed a cytotoxicity at 70.5 h of 9.92%.

With `CCCc1n[nH]c(C2CN(CCNS(=O)(=O)CC)CCO2)n1` (centres undefined) the cytotoxicity at 70.5 h was 7.53%.

`O=S(=O)(CCN1CCOC(Cn2cccn2)C1)C(F)(F)F` (centres undefined) showed a cytotoxicity at 70.5 h of 11.7%.

With `CCn1cnnc1CNC(=O)c1cc(Cl)ccc1O` the cytotoxicity at 70.5 h was 22.7%.

Compound `Cc1cccc(C(=O)NCc2ccc(N3CCCCC3)nc2)n1` has a cytotoxicity at 70.5 h of -3.76%.

Work on `Cn1cc(C(=O)NC2CCN(C(=O)NCCSC(F)(F)F)CC2)cn1` yielded a cytotoxicity at 70.5 h of -1.82%.

In the case of `CCc1cccc(N2CCC(NC(=O)c3cc[nH]n3)CC2)c1`, the cytotoxicity at 70.5 h is reported as 31.2%.

With `CCN1CCCC(CNC(=O)C2(c3cccc(Cl)c3)CC2)C1` (centres undefined) the cytotoxicity at 70.5 h was -0.608%.

With `CCN1CCC(CNC(=O)C2(c3cccc(C)c3)CC2)C1` (centres undefined) the cytotoxicity at 70.5 h was 0.0668%.

With `CCn1cc(NC(=O)C2CCN(Cc3ccccc3C#N)CC2)cn1` the cytotoxicity at 70.5 h was -1.61%.

With `O=C(CCc1ccccc1F)NS(=O)(=O)c1ccc2c(c1)OCCCO2` the cytotoxicity at 70.5 h was -3.8%.

For `FC(F)(F)Cn1ccnc1CN1CCOC(Cn2cccn2)C1` (centres undefined), the cytotoxicity at 70.5 h was -2.61%.

For `Cc1nn(C)c(N(C)C)c1CNCc1cccnc1-n1cncn1`, the cytotoxicity at 70.5 h was -5.08%.
